Source: US11051515B2, “3-acyl-benzamides and their use as herbicides” (Bayer Aktiengesellschaft, priority 2017, dated 2021)

Columns and labels:
HORMU [1] = assay: Pre-emergence action against HORMU; format: in vivo, Hordeum murinum; conditions: Dosage 320 g/ha
Procedure, shortened: (§1)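 Seeds sown in sandy loam in wood-fiber pots and covered with soil. Greenhouse growth; visual damage scored after 3 weeks versus untreated controls (100% = dead, 0% = like control).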

VERPE [2] = assay: Pre-emergence action against VERPE; format: in vivo, Veronica persica; conditions: Dosage 320 g/ha, pre-emergence
Procedure, shortened: as §1

VIOTR [3] = assay: Pre-emergence action against VIOTR; format: in vivo, Viola tricolor; conditions: Dosage 320 g/ha, pre-emergence
Procedure, shortened: as §1

LOLRI [4] = assay: Post-emergence action against LOLRI; format: in vivo, Lolium rigidum; conditions: dosage 80 g/ha, visual assessment about 3 weeks after treatment vs untreated controls
Method: (§2) Seeds of monocotyledonous and dicotyledonous weed and crop plants are laid out in sandy loam soil in wood-fiber pots, covered with soil and cultivated in a greenhouse under good growth conditions. 2 to 3 weeks after sowing, the test plants are treated at the one-leaf stage. The compounds of the invention, formulated in the form of wettable powders (WP) or as emulsion concentrates (EC), are then sprayed onto the green parts of the plants in the form of an aqueous suspension or emulsion at a water application rate equating to […], with addition of 0.2% wetting agent. After the test plants have been left to stand in the greenhouse under optimal growth conditions for about 3 weeks, the action of the preparations is assessed visually in comparison to untreated controls (herbicidal action in percent (%): 100% activity=the plants have died, 0% activity=like control plants). […] At the same time, inventive compounds leave Gramineae crops such as barley, wheat, rye, millet/Sorghum, corn or rice virtually undamaged when applied post-emergence, even at high active ingredient dosages. In addition, some substances are also harmless to dicotyledonous crops such as soya, cotton, oilseed rape, sugar beet or potatoes. Some of the compounds according to the invention have high selectivity and are therefore suitable for controlling unwanted vegetation in agricultural crops by the post-emergence method. The data of Tables B18 to B34 below illustrate, in an exemplary manner, the […] herbicidal action of the compounds according to the invention, the herbicidal activity being stated in percent.

ECHCG [5] = assay: Pre-emergence action against ECHCG; format: in vivo, Echinochloa crus-galli; conditions: pre-emergence, dosage 320 g/ha, scored visually after 3 weeks vs untreated controls
Procedure, shortened: as §1

STEME [6] = assay: Pre-emergence action against STEME; format: in vivo, Stellaria media; conditions: Dosage 320 g/ha, pre-emergence
Procedure, shortened: as §1

AVEFA [7] = assay: Pre-emergence action against AVEFA; format: in vivo, Avena fatua; conditions: dosage 320 g/ha, scored visually after 3 weeks vs untreated controls
Procedure, shortened: as §1

AMARE [8] = assay: Post-emergence action against AMARE; format: in vivo, Amaranthus retroflexus; conditions: post-emergence, dosage 80 g/ha, visual assessment about 3 weeks after treatment vs untreated controls
Procedure, shortened: (§3)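 Post-emergence foliar spray on greenhouse plants at the one-leaf stage, using wettable-powder or emulsion-concentrate formulations in water (600 to […], plus 0.2% wetting agent). Damage scored by eye roughly 3 weeks later against untreated plants: 0% = like control, 100% = dead.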

PHBPU [9] = assay: Pre-emergence action against PHBPU; format: in vivo, Pharbitis purpurea; conditions: Dosage 320 g/ha, pre-emergence
Procedure, shortened: as §1

PHBPU [10] = assay: Post-emergence action against PHBPU; format: in vivo, Pharbitis purpurea; conditions: post-emergence, dosage 80 g/ha
Procedure, shortened: as §3

AVEFA [11] = assay: Post-emergence action against AVEFA; format: in vivo, Avena fatua; conditions: post-emergence, dosage 80 g/ha, visual assessment about 3 weeks after treatment vs untreated controls
Procedure, shortened: as §3

ABUTH [12] = assay: Pre-emergence action against ABUTH; format: in vivo, Abutilon theophrasti; conditions: pre-emergence, dosage 320 g/ha, scored visually after 3 weeks vs untreated controls
Procedure, shortened: as §1

ABUTH [13] = assay: Post-emergence action against ABUTH; format: in vivo, Abutilon theophrasti; conditions: post-emergence, dosage 80 g/ha, visual assessment about 3 weeks after treatment vs untreated controls
Procedure, shortened: as §3

HORMU [14] = assay: Post-emergence action against HORMU; format: in vivo, Hordeum murinum; conditions: dosage 80 g/ha
Method: as §2

AMARE [15] = assay: Pre-emergence action against AMARE; format: in vivo, Amaranthus retroflexus; conditions: pre-emergence, dosage 320 g/ha, scored visually after 3 weeks vs untreated controls
Procedure, shortened: as §1

MATIN [16] = assay: Post-emergence action against MATIN; format: in vivo, Matricaria inodora; conditions: post-emergence, dosage 80 g/ha, visual assessment about 3 weeks after treatment vs untreated controls
Procedure, shortened: as §3

ECHCG [17] = assay: Post-emergence action against ECHCG; format: in vivo, Echinochloa crus-galli; conditions: post-emergence, dosage 80 g/ha, visual assessment about 3 weeks after treatment vs untreated controls
Procedure, shortened: as §3

SETVI [18] = assay: Pre-emergence action against SETVI; format: in vivo, Setaria viridis; conditions: pre-emergence, dosage 320 g/ha, scored visually after 3 weeks vs untreated controls
Procedure, shortened: as §1

MATIN [19] = assay: Pre-emergence action against MATIN; format: in vivo, Matricaria inodora; conditions: Dosage 320 g/ha, pre-emergence
Procedure, shortened: as §1

LOLRI [20] = assay: Pre-emergence action against LOLRI; format: in vivo, Lolium rigidum; conditions: dosage 320 g/ha, scored visually after 3 weeks vs untreated controls
Procedure, shortened: as §1

VIOTR [21] = assay: Post-emergence action against VIOTR; format: in vivo, Viola tricolor; conditions: post-emergence, dosage 80 g/ha
Procedure, shortened: as §3

VERPE [22] = assay: Post-emergence action against VERPE; format: in vivo, Veronica persica; conditions: dosage 80 g/ha
Procedure, shortened: as §3

ALOMY [23] = assay: Post-emergence action against ALOMY; format: in vivo, Alopecurus myosuroides; conditions: Dosage 80 g/ha, post-emergence
Procedure, shortened: as §3

STEME [24] = assay: Post-emergence action against STEME; format: in vivo, Stellaria media; conditions: post-emergence, dosage 80 g/ha
Procedure, shortened: as §3

POLCO [25] = assay: Post-emergence action against POLCO; format: in vivo, Polygonum convolvulus; conditions: post-emergence, dosage 80 g/ha
Procedure, shortened: as §3

SETVI [26] = assay: Post-emergence action against SETVI; format: in vivo, Setaria viridis; conditions: post-emergence, dosage 80 g/ha, visual assessment about 3 weeks after treatment vs untreated controls
Procedure, shortened: as §3

CYPES = assay: Post-emergence action against CYPES; format: in vivo, Cyperus esculentus; conditions: post-emergence, dosage 80 g/ha, visual assessment about 3 weeks after treatment vs untreated controls
Procedure, shortened: as §3

ALOMY [27] = assay: Pre-emergence action against ALOMY; format: in vivo, Alopecurus myosuroides; conditions: dosage 320 g/ha; pre-emergence; scored visually after 3 weeks vs untreated controls; 100% = plants have died, 0% = like control plants
Procedure, shortened: as §1

POLCO [28] = assay: Pre-emergence action against POLCO; format: in vivo, Polygonum convolvulus; conditions: Dosage 320 g/ha, pre-emergence
Procedure, shortened: as §1

DIGSA [29] = assay: Post-emergence action against DIGSA; format: in vivo, Digitaria sanguinalis; conditions: dosage 80 g/ha, visual assessment about 3 weeks after treatment vs untreated controls
Procedure, shortened: as §3

DIGSA [30] = assay: Pre-emergence action against DIGSA; format: in vivo, Digitaria sanguinalis; conditions: dosage 320 g/ha, scored visually after 3 weeks vs untreated controls
Procedure, shortened: as §1

Compound: CCn1nnnc1NC(=O)c1ccc(C(F)F)c(C(=O)C2CC2)c1SC [2-67]
- Pre-emergence action against HORMU (HORMU [1]): 100%
- Pre-emergence action against VERPE (VERPE [2]): 100%
- Pre-emergence action against VIOTR (VIOTR [3]): 100%
- Post-emergence action against LOLRI (herbicidal action in percent) (LOLRI [4]): 80%
- Pre-emergence action against ECHCG (herbicidal activity) (ECHCG [5]): 100%
- Pre-emergence action against STEME (STEME [6]): 100%
- Pre-emergence action against AVEFA (herbicidal activity) (AVEFA [7]): 100%
- Post-emergence action against AMARE (herbicidal action in percent) (AMARE [8]): 100%
- Pre-emergence action against PHBPU (PHBPU [9]): 90%
- Post-emergence action against PHBPU (PHBPU [10]): 100
- Post-emergence action against AVEFA (herbicidal action in percent) (AVEFA [11]): 100%
- Pre-emergence action against ABUTH (herbicidal activity) (ABUTH [12]): 100%
- Post-emergence action against ABUTH (herbicidal action in percent) (ABUTH [13]): 100%
- Post-emergence action against HORMU (HORMU [14]): 80
- Pre-emergence action against AMARE (herbicidal activity) (AMARE [15]): 100%
- Post-emergence action against MATIN (herbicidal action in percent) (MATIN [16]): 100%
- Post-emergence action against ECHCG (herbicidal action in percent) (ECHCG [17]): 100%
- SETVI (Table B8, pre-emergence herbicidal activity) (SETVI [18]): 100%
- Pre-emergence action against MATIN (MATIN [19]): 100%
- Pre-emergence action against LOLRI (herbicidal activity) (LOLRI [20]): 100%
- Post-emergence action against VIOTR (VIOTR [21]): 100
- Post-emergence action against VERPE (VERPE [22]): 90
- Post-emergence action against ALOMY (ALOMY [23]): 100%
- Post-emergence action against STEME (STEME [24]): 100
- Post-emergence action against POLCO (POLCO [25]): 100
- Post-emergence action against SETVI (herbicidal action in percent) (SETVI [26]): 100%
- Post-emergence action against CYPES (herbicidal action in percent) (CYPES): 80%
- Pre-emergence action against ALOMY (herbicidal activity in percent) (ALOMY [27]): 100%
- Pre-emergence action against POLCO (POLCO [28]): 90%

Compound: CCn1nnnc1NC(=O)c1ccc(C(F)(F)F)c(C(=O)C2CC2)c1C1CC1 [2-233]
- Pre-emergence action against HORMU (HORMU [1]): 90%
- Pre-emergence action against VERPE (VERPE [2]): 100%
- Pre-emergence action against VIOTR (VIOTR [3]): 100%
- Pre-emergence action against ECHCG (herbicidal activity) (ECHCG [5]): 100%
- Pre-emergence action against STEME (STEME [6]): 100%
- Pre-emergence action against AVEFA (herbicidal activity) (AVEFA [7]): 100%
- Post-emergence action against AMARE (herbicidal action in percent) (AMARE [8]): 100%
- Pre-emergence action against PHBPU (PHBPU [9]): 100%
- Post-emergence action against PHBPU (PHBPU [10]): 90
- Post-emergence action against AVEFA (herbicidal action in percent) (AVEFA [11]): 90%
- Pre-emergence action against ABUTH (herbicidal activity) (ABUTH [12]): 100%
- Post-emergence action against DIGSA (herbicidal action in percent) (DIGSA [29]): 90%
- Post-emergence action against ABUTH (herbicidal action in percent) (ABUTH [13]): 100%
- Post-emergence action against HORMU (HORMU [14]): 90
- Pre-emergence action against DIGSA (herbicidal activity) (DIGSA [30]): 100%
- Pre-emergence action against AMARE (herbicidal activity) (AMARE [15]): 100%
- Post-emergence action against MATIN (herbicidal action in percent) (MATIN [16]): 90%
- Post-emergence action against ECHCG (herbicidal action in percent) (ECHCG [17]): 90%
- SETVI (Table B8, pre-emergence herbicidal activity) (SETVI [18]): 100%
- Pre-emergence action against MATIN (MATIN [19]): 100%
- Pre-emergence action against LOLRI (herbicidal activity) (LOLRI [20]): 90%
- Post-emergence action against VIOTR (VIOTR [21]): 90
- Post-emergence action against VERPE (VERPE [22]): 100
- Post-emergence action against ALOMY (ALOMY [23]): 90%
- Post-emergence action against STEME (STEME [24]): 90
- Post-emergence action against POLCO (POLCO [25]): 80
- Post-emergence action against SETVI (herbicidal action in percent) (SETVI [26]): 90%
- Pre-emergence action against ALOMY (herbicidal activity in percent) (ALOMY [27]): 100%
- Pre-emergence action against POLCO (POLCO [28]): 90%
